Measurements published in ChEMBL document CHEMBL4152238, “Design, synthesis, structure-activity relationships and X-ray structural studies of novel 1-oxopyrimido[4,5-c]quinoline-2-acetic acid derivatives as selective and potent inhibitors of human aldose reductase” (Eur J Med Chem, 2018).
Active and inactive are the calls of the source. No cut-off for these calls is given here.

Columns and labels:
[1] = Selectivity ratio of IC50 for N-terminal His10-tagged AKR1B10 (unknown origin) expressed in Escherichia coli BL21 to IC50 for […] AKR1B1 expressed in Escherichia coli BL21
HT-1080 = test: Cytotoxicity against human HT1080 cells after 72 hrs by MTT assay; format: functional, cell-based; conditions: HT-1080, 72 h
[2] = Inhibition of […] AKR1B1 expressed in Escherichia coli BL21 using D,L-glyceraldehyde as substrate pretreated for 5 mins followed by substrate addition by spectrophotometric method; conditions: for Ki: read-out: Ki(app)
[3] = biological target: Aldo-keto reductase family 1 member B10 (Homo sapiens, UniProt O60218); test: Inhibition of N-terminal His10-tagged AKR1B10 (unknown origin) expressed in Escherichia coli BL21 using D,L-glyceraldehyde as substrate pretreated for 5 mins followed by substrate addition by spectrophotometric method
Chain of Aldo-keto reductase family 1 member B10 (O60218 whole entry): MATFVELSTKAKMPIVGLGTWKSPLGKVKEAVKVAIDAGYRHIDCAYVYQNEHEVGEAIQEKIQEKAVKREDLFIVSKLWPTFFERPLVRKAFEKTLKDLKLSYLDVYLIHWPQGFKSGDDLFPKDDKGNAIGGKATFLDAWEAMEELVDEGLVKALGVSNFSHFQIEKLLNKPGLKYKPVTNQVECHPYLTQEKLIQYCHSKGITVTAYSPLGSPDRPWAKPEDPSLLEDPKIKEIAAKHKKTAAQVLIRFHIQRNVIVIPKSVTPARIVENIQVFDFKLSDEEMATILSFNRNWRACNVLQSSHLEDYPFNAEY

Cricetulus griseus = organism: Cricetulus griseus; test: Inhibition of […] AKR1B1 expressed in Escherichia coli BL21 up to 10 uM using D,L-glyceraldehyde as substrate pretreated for 5 mins followed by substrate addition by spectrophotometric method

Row | Ratio IC50 [1] | IC50 [2] | IC50 [3] | inhibition (Cricetulus griseus) | Structure (SMILES) | IC50 (HT-1080) | Ki [2]
1 | 50 | 200 nM | 10000 nM |  | Cc1nc2c(-c3ccc(Br)cc3)nc3ccccc3c2c(=O)n1CC(=O)O | > 100000 nM | 150 nM
2 | 6 | 4920 nM | 28500 nM |  | Cc1ccc2nc(-c3ccc(Cl)cc3)c3nc(C)n(CC(=O)O)c(=O)c3c2c1 | > 100000 nM | 
3 | 6 | 1540 nM | 9610 nM |  | Cc1nc2c(-c3ccc(Cl)cc3)nc3ccc(Cl)cc3c2c(=O)n1CC(=O)O | 30200 nM | 
4 | 17 | 570 nM | 9610 nM |  | Cc1nc2c(-c3ccc(Br)cc3)nc3ccc(F)cc3c2c(=O)n1CC(=O)O | > 100000 nM | 
5 | 3 | 1010 nM | 2990 nM |  | O=C(O)Cn1c(Cc2ccc(Cl)cc2)nc2c(-c3ccc(Cl)cc3)nc3ccccc3c2c1=O |  | 
6 | 1 | 2650 nM | 2350 nM |  | O=C(O)Cn1c(Cc2ccccc2)nc2c(-c3ccc(Cl)cc3)nc3ccccc3c2c1=O |  | 
7 | 5 | 3140 nM | 15000 nM |  | COc1ccc2nc(-c3ccc(Cl)cc3)c3nc(C)n(CC(=O)O)c(=O)c3c2c1 | 86700 nM | 
8 | 8 | 2220 nM | 17800 nM |  | Cc1nc2c(-c3ccc(Cl)cc3)nc3ccc(Br)cc3c2c(=O)n1CC(=O)O | > 100000 nM | 
9 |  |  |  |  | COc1cccc2c1C(=O)c1c(O)c3c(c(O)c1C2=O)C[C@@](O)(C(=O)CO)C[C@@H]3O[C@H]1C[C@H](N)[C@H](O)[C@H](C)O1 [DOXORUBICIN] | 5.8 nM | 
10 | 9 | 410 nM | 3890 nM |  | CCc1nc2c(-c3ccc(Cl)cc3)nc3ccc(F)cc3c2c(=O)n1CC(=O)O |  | 500 nM
11 | 39 | 120 nM | 4710 nM |  | CCc1nc2c(-c3ccc(Cl)cc3)nc3ccccc3c2c(=O)n1CC(=O)O |  | 73 nM
12 |  |  |  | inactive | Nn1c(-c2ccc(Cl)cc2)nc2c(-c3ccc(Cl)cc3)nc3ccc(Cl)cc3c2c1=O |  | 
13 | 38 | 260 nM | 10000 nM |  | COc1ccc(-c2nc3ccc(F)cc3c3c(=O)n(CC(=O)O)c(C)nc23)cc1 | > 100000 nM | 240 nM
14 | 37 | 210 nM | 7860 nM |  | Cc1nc2c(-c3ccc(Cl)cc3)nc3ccccc3c2c(=O)n1CC(=O)O | > 100000 nM | 130 nM
15 | 22 | 760 nM | 17000 nM |  | COc1ccc(-c2nc3ccc(Cl)cc3c3c(=O)n(CC(=O)O)c(C)nc23)cc1 | 78100 nM | 
16 | 10 | 1570 nM | 16300 nM |  | Cc1nc2c(-c3ccc(Br)cc3)nc3ccc(Br)cc3c2c(=O)n1CC(=O)O | > 100000 nM | 
17 | 7 | 1920 nM | 13800 nM |  | Cc1nc2c(-c3ccc(Br)cc3)nc3ccc(Cl)cc3c2c(=O)n1CC(=O)O | > 100000 nM | 
18 | 14 | 430 to 460 nM | 6390 nM |  | Cc1nc2c(-c3ccccc3)nc3ccccc3c2c(=O)n1CC(=O)O |  | 440 nM
19 | 23 | 350 nM | 8180 nM |  | Cc1nc2c(-c3ccc(Cl)cc3)nc3ccc(F)cc3c2c(=O)n1CC(=O)O | > 100000 nM | 240 nM
20 | 18 | 190 nM | 3330 nM |  | CCCc1nc2c(-c3ccc(Cl)cc3)nc3ccccc3c2c(=O)n1CC(=O)O |  | 130 nM
21 | 9 | 660 nM | 5870 nM |  | O=C(O)Cn1c(Cc2ccc(Cl)cc2)nc2c(-c3ccccc3)nc3ccccc3c2c1=O |  | 
22 |  |  |  | inactive | Nn1c(-c2ccc(Br)cc2)nc2c(-c3ccc(Br)cc3)nc3ccc(Cl)cc3c2c1=O |  | 
